Assay results from ChEMBL document CHEMBL3885861, “Open TG-GATES”.
*1 amine or outer side, *2 acyl side, *3 side chain or, on linkers, in order; H or OH if unused. Where a SMILES comes first, the peptide text is derived from it. Bridges are numbered along the chain shown (N, C = ends). [ ]: non-standard residue; d: D form. Trp(2-yl) = O=C([C@H](Cc1c([*:3])[nH]c2ccccc12)N[*:1])[*:2]; Leu(4R-OH,5-OH) = C[C@](O)(CO)C[C@H](N)C(=O)O; cisHyp = O=C(O)[C@@H]1C[C@H](O)CN1

Species on record: Rattus norvegicus
Experiment: Open TG-GATES - Regimen: Single
Format: toxicity, organism-based, Sprague-Dawley
Design: regimen Single, gender Male, age 6 weeks
Details: in vivo, ip, 0 mg/kg, route intraperitoneal injection, dose level Control; for APTT / Bas / Eos / Fbg / Hb / Ht / Lym / MCH / MCHC / MCV / Mono / Neu / PT / Plat / RBC / Ret / WBC: tissue Blood; for KIDNEY_L / KIDNEY_R / KIDNEY_TOTAL: tissue Kidney; for LIVER: tissue Liver; for A/G / ALP / ALT / AST / BUN / CRE / Ca / Cl / DBIL / GLC / IP / K / LDH / Na / PL / RALB / TBIL / TC / TG / TP / gamma-GTP: tissue Plasma

`C[C@@H]1NC(=O)[C@H](C[C@@](C)(O)CO)NC(=O)[C@@H]2Cc3c([nH]c4ccccc34)SC[C@H](NC(=O)[C@@H]([C@H](C)O)NC1=O)C(=O)N1C[C@@H](O)C[C@H]1C(=O)N[C@@H](C)C(=O)N2` [PHALLOIDIN] (cyclo(A[dT]C[cisHyp]A[Trp(2-yl)][Leu(4R-OH,5-OH)]); thioether 3-6) gave a TERMINAL_BW (3 h) of 206 g, an APTT (3 h) of 23.6 s and a Bas (3 h) of 0%. The Eos (3 h) was 0.2%, the Fbg (3 h) was 283.8 mg/dL and the Hb (3 h) was 12.9 g/dL. The Ht (3 h) was 40.5%, the Lym (3 h) was 73.8% and the MCH (3 h) was 20.1 pg. It also gave an MCHC (3 h) of 32%, an MCV (3 h) of 62.8 fL and a Mono (3 h) of 2.4%. For the same compound, the Neu (3 h) was 22.8%, the PT (3 h) was 16.1 s and the Plat (3 h) was 112.9 x10_4/uL. The RBC (3 h) was 645 x10_4/ul, the Ret (3 h) was 7.5% and the WBC (3 h) was 74.9 x10_2/uL. It also gave a KIDNEY_L (3 h) of 0.9 g, a KIDNEY_R (3 h) of 0.9 g and a KIDNEY_TOTAL (3 h) of 1.8 g. For the same compound, the LIVER (3 h) was 8.6 g, the A/G (3 h) was 1.2 and the ALP (3 h) was 1620.6 IU/L. For the same compound, the ALT (3 h) was 45.2 IU/L, the AST (3 h) was 76.4 IU/L and the BUN (3 h) was 11.2 mg/dL. It also gave a CRE (3 h) of 0.2 mg/dL, a Ca (3 h) of 10.4 mg/dL and a Cl (3 h) of 108.6 meq/L. For the same compound, the DBIL (3 h) was 0 mg/dL, the GLC (3 h) was 187.8 mg/dL and the IP (3 h) was 8.4 mg/dL. The K (3 h) was 3.8 meq/L, the LDH (3 h) was 165.2 IU/L and the Na (3 h) was 141.8 meq/L. The PL (3 h) was 132 mg/dL, the RALB (3 h) was 2.8 g/dL and the TBIL (3 h) was 0 mg/dL. The TC (3 h) was 81 mg/dL, the TG (3 h) was 66.2 mg/dL and the TP (3 h) was 5.2 g/dL. The gamma-GTP (3 h) was 1 IU/L, the TERMINAL_BW (6 h) was 208.8 g and the APTT (6 h) was 22.5 s. For the same compound, the Bas (6 h) was 0%, the Eos (6 h) was 0.4% and the Fbg (6 h) was 305.6 mg/dL. For the same compound, the Hb (6 h) was 12.5 g/dL, the Ht (6 h) was 38.7% and the Lym (6 h) was 79.6%. It also gave an MCH (6 h) of 20.4 pg, an MCHC (6 h) of 32.2% and an MCV (6 h) of 63.4 fL. It also gave a Mono (6 h) of 1.8%, a Neu (6 h) of 17.2% and a PT (6 h) of 16 s. The Plat (6 h) was 126.1 x10_4/uL, the RBC (6 h) was 611.2 x10_4/ul and the Ret (6 h) was 7.3%. It also gave a WBC (6 h) of 94.6 x10_2/uL, a KIDNEY_L (6 h) of 0.9 g and a KIDNEY_R (6 h) of 0.9 g. For the same compound, the KIDNEY_TOTAL (6 h) was 1.8 g, the LIVER (6 h) was 9.1 g and the A/G (6 h) was 1.2. For the same compound, the ALP (6 h) was 1368 IU/L, the ALT (6 h) was 38 IU/L and the AST (6 h) was 69 IU/L. The BUN (6 h) was 15.6 mg/dL, the CRE (6 h) was 0.2 mg/dL and the Ca (6 h) was 10.5 mg/dL. For the same compound, the Cl (6 h) was 106.2 meq/L, the DBIL (6 h) was 0 mg/dL and the GLC (6 h) was 195.8 mg/dL. It also gave an IP (6 h) of 7.8 mg/dL, a K (6 h) of 4.2 meq/L and an LDH (6 h) of 168.6 IU/L. The Na (6 h) was 141.2 meq/L, the PL (6 h) was 137 mg/dL and the RALB (6 h) was 2.8 g/dL. It also gave a TBIL (6 h) of 0 mg/dL, a TC (6 h) of 82 mg/dL and a TG (6 h) of 63 mg/dL. For the same compound, the TP (6 h) was 5.2 g/dL, the gamma-GTP (6 h) was 1.4 IU/L and the TERMINAL_BW (9 h) was 208.4 g. It also gave an APTT (9 h) of 22.5 s, a Bas (9 h) of 0% and an Eos (9 h) of 0.4%. It also gave a Fbg (9 h) of 290.4 mg/dL, a Hb (9 h) of 12.5 g/dL and a Ht (9 h) of 39.2%. For the same compound, the Lym (9 h) was 79.4%, the MCH (9 h) was 20.4 pg and the MCHC (9 h) was 31.9%. The MCV (9 h) was 63.8 fL, the Mono (9 h) was 1.6% and the Neu (9 h) was 18%. It also gave a PT (9 h) of 15.9 s, a Plat (9 h) of 120.7 x10_4/uL and an RBC (9 h) of 613.6 x10_4/ul. The Ret (9 h) was 7.1%, the WBC (9 h) was 83.1 x10_2/uL and the KIDNEY_L (9 h) was 0.9 g. For the same compound, the KIDNEY_R (9 h) was 1 g, the KIDNEY_TOTAL (9 h) was 1.9 g and the LIVER (9 h) was 9.2 g. It also gave an A/G (9 h) of 1.2, an ALP (9 h) of 1788.6 IU/L and an ALT (9 h) of 45.2 IU/L. For the same compound, the AST (9 h) was 75.4 IU/L, the BUN (9 h) was 13.4 mg/dL and the CRE (9 h) was 0.2 mg/dL. It also gave a Ca (9 h) of 10.5 mg/dL, a Cl (9 h) of 105 meq/L and a DBIL (9 h) of 0 mg/dL. The GLC (9 h) was 202.8 mg/dL, the IP (9 h) was 7.7 mg/dL and the K (9 h) was 4.3 meq/L. The LDH (9 h) was 145.6 IU/L, the Na (9 h) was 140.8 meq/L and the PL (9 h) was 134.8 mg/dL. For the same compound, the RALB (9 h) was 2.9 g/dL, the TBIL (9 h) was 0.004 mg/dL and the TC (9 h) was 79 mg/dL. It also gave a TG (9 h) of 71.2 mg/dL, a TP (9 h) of 5.3 g/dL and a gamma-GTP (9 h) of 1.4 IU/L. The TERMINAL_BW (24 h) was 216 g, the APTT (24 h) was 22.7 s and the Bas (24 h) was 0%. The Eos (24 h) was 0.6%, the Fbg (24 h) was 321.6 mg/dL and the Hb (24 h) was 12.3 g/dL. For the same compound, the Ht (24 h) was 38.4%, the Lym (24 h) was 83.8% and the MCH (24 h) was 20.3 pg. The MCHC (24 h) was 32.1%, the MCV (24 h) was 63.4 fL and the Mono (24 h) was 1.6%. The Neu (24 h) was 13.4%, the PT (24 h) was 16 s and the Plat (24 h) was 120 x10_4/uL. It also gave an RBC (24 h) of 606.2 x10_4/ul, a Ret (24 h) of 7.7% and a WBC (24 h) of 76.3 x10_2/uL. For the same compound, the KIDNEY_L (24 h) was 1 g, the KIDNEY_R (24 h) was 1 g and the KIDNEY_TOTAL (24 h) was 2 g. The LIVER (24 h) was 9.4 g, the A/G (24 h) was 1.2 and the ALP (24 h) was 1563.4 IU/L. The ALT (24 h) was 40.8 IU/L, the AST (24 h) was 69 IU/L and the BUN (24 h) was 14 mg/dL. It also gave a CRE (24 h) of 0.2 mg/dL, a Ca (24 h) of 10.5 mg/dL and a Cl (24 h) of 105.4 meq/L. The DBIL (24 h) was 0.002 mg/dL, the GLC (24 h) was 196 mg/dL and the IP (24 h) was 8.9 mg/dL. For the same compound, the K (24 h) was 3.9 meq/L, the LDH (24 h) was 182.4 IU/L and the Na (24 h) was 141.6 meq/L. For the same compound, the PL (24 h) was 144.2 mg/dL, the RALB (24 h) was 2.9 g/dL and the TBIL (24 h) was 0.002 mg/dL. For the same compound, the TC (24 h) was 85.6 mg/dL, the TG (24 h) was 55.4 mg/dL and the TP (24 h) was 5.3 g/dL. It also gave a gamma-GTP (24 h) of 1.8 IU/L.
